Source: patent US20080255031A1, “METHOD FOR ENHANCING INSULIN SECRETION” (priority 2007, published 2008)
Values joined by “and” are separate entries in the source; they are usually repeats but may differ in a detail not shown here. Identical values can stand only once. Like-named read-outs stand apart in the source and are kept apart here.

Columns and labels:
[1] = tested on: normal SD rats; test: Insulin levels during intravenous glucose tolerance test (IVGTT) in normal SD rats; format: in vivo, rat; settings: 15 mg/kg, 30 minutes prior to glucose
Experimental: Each rat was subjected to an IVGTT according to the method of […] et al, Metabolism 42, (1):1-6, 1993. The rats were fasted overnight before administration of the test. One group of eleven rats was given only saline prior to glucose load while the second group of seven rats was given ranolazine prior to glucose load. Glucose was administered at time zero while ranolazine was administered 30 minutes prior to glucose at a dose of 15 mg/kg of body weight. Then, the insulin concentrations in the blood were measured at -30, 0, 2, 4, 7, 15 and 30 minutes. […] The procedure used was that described in Example 2 above.

[2] = tested on: Female rabbit isolated hearts; test: LV monophasic action potential duration (MAPD90) in female rabbit isolated hearts; settings: for EC50: Oryctolagus cuniculus
Experimental: The objective of this example is to present the effects of ranolazine and the R- and S-enantiomers of ranolazine on left ventricular monophasic action potential duration (LV MAPD), regional LV dispersion of MAPD (apex-base) and arrhythmogenesis. Female rabbit isolated hearts were perfused with modified K-H solution and paced at a constant rate of 1 Hz after surgical-induced complete atrioventricular block. LV MAPs from the base and apex were measured using contact MAP electrodes.
Each animal was sedated using 6 mg/kg xylazine i.m. and 40 mg/kg ketamine i.m. and then anesthetized by a “cocktail” (ketamine 15 mg/kg+xylazine 4 mg/kg in 1.5 mL saline) i.v. via the marginal ear vein. The thorax was quickly opened. The heart was excised and placed in a modified Krebs-Henseleit (K-H) solution at room temperature. The K-H solution contained (in mmol/L): NaCl 118, KCl 2.8, KH2PO4 1.2, CaCl2 2.5, MgSO4 0.5, pyruvate 2.0, glucose 5.5, Na2EDTA 0.57 and NaHCO3 25. The solution was continuously gassed with 95% O2 and 5% CO2, and its pH was adjusted to 7.4. The aorta was rapidly catheterized and the heart was perfused by the method of Langendorff with K-H solution warmed to 36-36.5° C. at a rate of 20 mL/min with a roller pump (Gilson Minipuls3, Middleton, Wis.). Perfusion pressure was measured (with a Biopac MP 150 pressure transducer, Goleta, Calif.) from a side port of the aortic catheter. To facilitate exit of fluid from the chamber of the left ventricle (LV), the leaflets of the mitral valve were trimmed with fine spring-handled scissors. The right atrial wall was partially removed for AV node ablation to block AV conduction.
Complete AV block was induced by surgical ablation (heated) of AV nodal area. […] A bipolar Teflon-coated electrode was placed on the right ventricular septum to pace the heart. Electrical stimuli 3 msec in width and 3-fold threshold amplitude were delivered to the pacing electrode at a frequency of 1 Hz using a Grass S48 stimulator (W. Warwick, R.I.).
After initiation of ventricular pacing, a 30-40 min delay was allowed for heart rhythm and perfusion pressure to achieve a steady state, an essential experimental condition for recording a good quality monophasic action potential (MAP).
Monophasic action potentials (MAP) and ECG electrodes from Harvard Apparatus Inc. (Holliston, Mass.) were used to record left ventricular MAPs and bipolar ECG. Two MAP electrodes were placed on the epicardial ventricular free wall below the level of atrial-ventricular valves to record basal MAP and apex to record apical MAP signals, respectively. MAP electrodes were pressure-contact Ag—AgCl electrodes attached to a circular holder with springs to maintain the electrodes' contact with the LV epicardial surface. […] Signals were saved on a computer hard disk for subsequent analysis. Bipolar electrocardiogram (ECG) was generated using an isolated-heart ECG apparatus (Harvard Apparatus, Holliston, Mass.) attached to Biopac amplifier system. Coronary perfusion pressure was measured using a pressure transducer (Biopac or PowerLab pressure measuring system). […] All signals were saved on a computer hard disk for subsequent analysis.
Original MAP profiles of 3-5 consecutive beats were superimposed to get one average signal using computer software (Biopac, Goleta, Calif.) and then transferred into Microsoft Excel software and plotted to measure the duration of the MAP at the level at which repolarization is 90% completed (MAPD90).

[3] = target: T1, β2-adrenergic receptors (Cavia porcellus, UniProt Q8K4Z4); test: Radioligand binding to β2-ARs, membranes from guinea-pig lung
T1 construct: membranes prepared from rat ventricle and guinea-pig lung, respectively; from tissue; host or cells: guinea-pig lung membranes
T1 sequence (Q8K4Z4 whole entry): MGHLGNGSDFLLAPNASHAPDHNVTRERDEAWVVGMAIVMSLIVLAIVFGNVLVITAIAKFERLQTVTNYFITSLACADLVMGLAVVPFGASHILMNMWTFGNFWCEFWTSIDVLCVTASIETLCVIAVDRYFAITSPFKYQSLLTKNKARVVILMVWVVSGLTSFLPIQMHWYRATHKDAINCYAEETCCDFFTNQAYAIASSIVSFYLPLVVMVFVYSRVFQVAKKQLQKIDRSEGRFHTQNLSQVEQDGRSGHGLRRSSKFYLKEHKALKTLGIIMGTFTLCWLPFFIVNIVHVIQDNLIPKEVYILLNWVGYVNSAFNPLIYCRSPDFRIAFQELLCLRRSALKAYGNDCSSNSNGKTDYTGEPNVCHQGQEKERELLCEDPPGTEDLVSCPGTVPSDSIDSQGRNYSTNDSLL
Experimental: (§1) The objective of this example is to present the affinities and potencies of ranolazine and its S- and R-enantiomers for β1 and β2-adrenergic receptors (ARs) in various tissues and cell lines. Using radioligand binding techniques, competition of the compounds for specific radioligand binding to β1- and β2-ARs was determined using membranes prepared from rat ventricle and guinea-pig lung, respectively.

[4] = target: T2, β1-ARs (Rattus norvegicus, UniProt P18090); test: Isoproterenol-induced cAMP accumulation in rat C6 glioma cells (mostly β1-ARs); format: cell-based; settings: read-out: KB (Schild), β1-ARs
T2 construct: rat C6 glioma cells (expressing mostly β1-ARS); endogenous in cells; host or cells: rat C6 glioma cells
T2 sequence (P18090 whole entry): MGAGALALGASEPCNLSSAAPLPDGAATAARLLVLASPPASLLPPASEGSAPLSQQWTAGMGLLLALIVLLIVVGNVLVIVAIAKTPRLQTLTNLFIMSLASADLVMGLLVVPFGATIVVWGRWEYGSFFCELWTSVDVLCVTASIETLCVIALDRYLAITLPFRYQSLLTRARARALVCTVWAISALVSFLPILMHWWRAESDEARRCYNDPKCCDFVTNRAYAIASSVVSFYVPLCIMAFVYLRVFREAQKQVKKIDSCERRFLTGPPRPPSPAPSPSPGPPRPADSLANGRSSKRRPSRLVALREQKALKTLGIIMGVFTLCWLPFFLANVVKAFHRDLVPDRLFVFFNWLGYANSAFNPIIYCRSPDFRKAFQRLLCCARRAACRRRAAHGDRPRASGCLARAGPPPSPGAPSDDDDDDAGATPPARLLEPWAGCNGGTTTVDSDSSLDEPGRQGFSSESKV
Experimental: (§2) The effect of ranolazine and its S- and R-enantiomers on cAMP accumulations in rat C6 glioma cells (expressing mostly β1-ARS) and DDT1 MF-2 hamster smooth muscles cells (expressing mostly β2-ARs) were determined. […] However, in the presence of the compounds, the concentration-response curve for the isoproterenol-induced increase in cAMP was shifted to the right with no apparent reduction in the maximal responses, indication that these compounds are competitive antagonists of β1- and β2-ARs. Using the Schild equations for multiple concentrations of the antagonist (ranolazine) or for a single concentration of the enantiomers, the KB values for ranolazine and its S- and R-enantiomers were 9.7, 8.0, and >50 μM (for β1-ARS) and 12.2, 9.0, and >50 μM (for β2-ARs). In summary, ranolazine and its S-enantiomer are competitive antagonists of β1 and β2-ARS with the S-enantiomer having the highest binding affinities of all.

[5] = target: T3, β1-adrenergic receptors (Rattus norvegicus, UniProt P18090); test: Radioligand binding to β1-ARs, membranes from rat ventricle
T3 construct: membranes prepared from rat ventricle and guinea-pig lung, respectively; from tissue; host or cells: rat ventricle membranes
T3 sequence (P18090 whole entry): as above
Experimental: as §1

[6] = target: T4, β2-ARs (Mesocricetus auratus, UniProt P04274); test: Isoproterenol-induced cAMP accumulation in DDT1 MF-2 hamster smooth muscle cells (mostly β2-ARs); format: cell-based; settings: read-out: KB (Schild), β2-ARs
T4 construct: DDT1 MF-2 hamster smooth muscles cells (expressing mostly β2-ARs); endogenous in cells; host or cells: DDT1 MF-2 hamster smooth muscle cells
T4 sequence (P04274 whole entry): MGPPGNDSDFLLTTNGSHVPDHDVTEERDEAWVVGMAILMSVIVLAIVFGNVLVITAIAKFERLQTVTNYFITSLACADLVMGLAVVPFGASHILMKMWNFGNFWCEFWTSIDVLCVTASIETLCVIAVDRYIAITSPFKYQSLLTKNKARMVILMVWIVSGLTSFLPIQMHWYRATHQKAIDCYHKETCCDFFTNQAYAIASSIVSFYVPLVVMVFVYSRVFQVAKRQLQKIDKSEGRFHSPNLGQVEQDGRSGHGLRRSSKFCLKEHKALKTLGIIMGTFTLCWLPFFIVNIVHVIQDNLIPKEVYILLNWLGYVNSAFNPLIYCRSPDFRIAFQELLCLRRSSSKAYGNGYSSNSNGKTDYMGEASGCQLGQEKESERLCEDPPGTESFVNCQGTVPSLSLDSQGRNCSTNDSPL
Experimental: as §2

[7] = target: CYP2D6 (Homo sapiens, UniProt P10635); test: biochemical
CYP2D6, sequence (P10635 whole entry): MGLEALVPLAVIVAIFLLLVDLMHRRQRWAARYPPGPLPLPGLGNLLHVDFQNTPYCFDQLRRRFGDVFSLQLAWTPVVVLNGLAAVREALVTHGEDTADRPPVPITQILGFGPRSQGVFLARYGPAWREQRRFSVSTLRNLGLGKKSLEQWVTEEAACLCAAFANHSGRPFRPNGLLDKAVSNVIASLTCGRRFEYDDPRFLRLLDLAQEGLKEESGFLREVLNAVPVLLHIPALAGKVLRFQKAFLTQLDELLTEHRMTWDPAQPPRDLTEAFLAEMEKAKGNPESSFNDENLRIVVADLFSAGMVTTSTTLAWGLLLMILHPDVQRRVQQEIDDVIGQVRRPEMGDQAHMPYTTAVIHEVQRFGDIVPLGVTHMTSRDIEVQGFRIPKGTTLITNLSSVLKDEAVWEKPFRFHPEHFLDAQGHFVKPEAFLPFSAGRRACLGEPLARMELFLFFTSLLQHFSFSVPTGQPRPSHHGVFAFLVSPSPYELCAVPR

[8] = paced at 1 Hz, site not stated, read-out: EC50 to prolong LV MAPD90

EC50 ([2]; paced at 1 Hz, read-out: EC50 to prolong LV MAPD90 (Apex)) [µM] | EC50 ([2]; paced at 1 Hz, read-out: EC50 to prolong LV MAPD90 (Base)) [µM] | induction of EADs, PVBs or VT ([2]; at any concentration) | Ki [3] [µM] | Kb [4] [µM] | Ki [5] [µM] | Kb [6] [µM] | EC50 [2, 8] [µM] | IC50 [7] [µM] | SMILES | insulin levels relative to baseline during IVGTT, compared to vehicle treated rats [1] | regional MAPD dispersion and PVBs or VT ([2]; 1-100 μM) | maximal increase of apical MAPD90 above control ([2]; paced at 1 Hz, 30-100 μmol/L) | maximal increase of basal MAPD90 above control ([2]; paced at 1 Hz, 30-100 μmol/L) | maximal increase of MAPD90 ([2]; paced at 1 Hz, site not stated) [%]
4.8 | 4.3 | did not induce any EADs, PVBs or VT | 14.8 | 9.7 | 8.6 | 12.2 | – | – | COc1ccccc1OCC(O)CN1CCN(CC(=O)Nc2c(C)cccc2C)CC1 (racemic) [ranolazine, (±)-N-(2,6-dimethylphenyl)-4-[2-hydroxy-3-(2-methoxyphenoxy)propyl]-1-piperazine-acetamide] | higher | without increasing regional MAPD dispersion or eliciting premature ventricular beats (PVBs) or ventricular tachycardia (VT) | 35±4% and 35.2±4.1% | 32±4% and 32.2±4.2% | –
– | – | – | 39 | > 50 | > 100 | > 50 | 6.4 | 430 | COc1ccccc1OC[C@H](O)CN1CCN(CC(=O)Nc2c(C)cccc2C)CC1 [R-ranolazine, (R)-(+)-N-(2,6-dimethylphenyl)-4-[2-hydroxy-3-(2-methoxyphenoxy)-propyl]-1-piperazineacetamide] | higher | – | – | – | 22±5
– | – | – | 6.7 | 8 | 4.8 | 9 | 5.9 | 130 | COc1ccccc1OC[C@@H](O)CN1CCN(CC(=O)Nc2c(C)cccc2C)CC1 [S-ranolazine, (S)-(−)-N-(2,6-dimethylphenyl)-4-[2-hydroxy-3-(2-methoxyphenoxy)-propyl]-1-piperazineacetamide] | not different from the vehicle treated rats | – | – | – | 28±4
